Laboratory results taken from patent US20160046616A1, “NRF2 SMALL MOLECULE INHIBITORS FOR CANCER THERAPY” (THE JOHNS HOPKINS UNIVERSITY, priority 2013, published 2016).
Entries after “also recorded” stand apart in the source; their conditions may differ.

Assays:
[1] = system: A549 NRF2-ARE-Fluc stable cell line; assay: A549 Nrf2 assay: NRF2-ARE firefly luciferase reporter gene assay; assay type: cell-based; conditions: Homo sapiens, read-out: Potency of inhibition, A549
In short: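 A549 cells (Keap1 loss-of-function, constitutive NRF2) stably carrying ARE-driven firefly luciferase; compound treatment 18–24 h at 37 °C, 0.46% DMSO final.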

[2] = system: Rhabdomyosarcoma cells (Rh30); assay: Growth of rhabdomyosarcoma cells (clonogenic / soft agar); assay type: cell-based; conditions: for Growth of rhabdomyosarcoma cells, clonogenic assay, single agent: single agents
Procedure: (A) Ewing sarcoma cells (A4573) cells were on soft agar and treated with doxorubicin (2 nM) singly or in combination with compound 4 (10 μM) for 72 h. At the end of treatment, regular growth media was added and cells were further incubated for 8-10 days and colonies were stained with crystal violet and counted. (B) Rhabdomyosarcoma cells (Rh30) cells were on soft agar and treated with doxorubicin (2 nM) and etoposide (5-nM) singly or in combination with compound 4 (10 μM) for 72 h. At the end of treatment, regular growth media was added and cells were further incubated for 8-10 days and colonies were stained with crystal violet and counted;
For the clonogenic assays, 1,000 cells/well were plated in a 6-well plate. The next day, the cells were treated with vehicle (DMSO), Nrf2 inhibitor, a chemotherapeutic drug, or a combination of Nrf2 and chemotherapeutic drugs for 48 hrs. The drug containing media was then replaced with regular growth media and the cells were incubated for an additional 10 days. At the end of incubation period, the colonies were stained with Crystal Violet and imaged.

[3] = system: H1437 NRF2-ARE-Fluc stable cell line; assay: H1437 Nrf2 assay: NRF2-ARE firefly luciferase reporter gene assay; assay type: cell-based; conditions: Homo sapiens, NCI-H1437, H1437 NRF2-ARE-Fluc stable cell line; read-out: Potency of inhibition, H1437
A549 xenograft tumors = assay: A549 lung cancer xenograft assay (flank); assay type: in vivo, athymic nude mice; conditions: for A549 tumor weight at end of treatment, combination with carboplatin / A549 tumor weight at end of treatment, single agent: compared to vehicle group; for Growth of A549 xenograft tumors, combination with carboplatin / Growth of A549 xenograft tumors, single agent: nude mice, flank; for Growth of A549 xenograft tumors, single agent / Efficacy of compound alone relative to carboplatin, A549 tumors: single agent
Procedure: A549 cells were injected in the flanks of athymic nude mice and once tumor volume reached 50-100 mm^3, treatment was initiated. Vehicle, carboplatin (5 mg/kg daily Monday to Friday), compound 4 (30 mg/kg daily Monday to Friday) or a combination of compound 4 and carboplatin was administered for three weeks. Values represent tumor volume ±s.e.m. for all groups (A). […] Tumors were excised and weight at the end of treatment period. […] For each group, pretreatment available lung volume was defined as 100% and compared with post-treatment lung volumes. Mice in the vehicle treated group died at 3 weeks;
A549 cells were injected in the flanks of athymic nude mice and once tumor volume reached 50-100 mm^3, treatment was initiated. Vehicle, carboplatin (20 mg/kg; 2 days/week), compound#1 (20 mg/kg 4 days/week) or a combination of compound 1 and carboplatin was administered for four weeks. Values represent tumor volume ±s.e.m. for all groups. […] Tumors were excised and weight at the end of treatment period. […] H460 cells were injected in the flanks of athymic nude mice and once tumor volume reached 50-100 mm^3, treatment was initiated. Vehicle, carboplatin (10 mg/kg; 5 days/week), compound 1 (30 mg/kg 5 days/week) or a combination of compound 1 and carboplatin was administered for three weeks. Values represent tumor volume ±s.e.m.;
A549 cells were injected in the flanks of athymic nude mice and once tumor volume reached 50-100 mm^3, treatment was initiated. Vehicle, carboplatin (10 mg/kg; 5 days/week), compound 3 (60 mg/kg 4 days/week) or a combination of compound 3 and carboplatin was administered for 15 days. Tumor growth was monitored till 28 days. Values represent tumor volume ±s.e.m. for all groups. […] Values represent tumor volume ±s.e.m.;
For the A549 lung cancer xenograft assay, five million cells in 100 μL of PBS were implanted in the flank of nude mice. Two to three weeks post cell implantation, when the tumors were about 50 to 100 mm^3 in dimension, the mice were randomly divided into four groups: vehicle, chemotherapeutic drug, Nrf2 inhibitor, and chemotherapeutic drug with an Nrf2 inhibitor. The mice were treated with the drugs for 2 to 4 weeks. Tumor volume was recorded biweekly.

Row | IC50 [1] [µM] | IC50 [3] [µM] | SMILES | Colony growth of Rh30 cells on soft agar, combination ([2]; 10 μM with doxorubicin (2 nM) and etoposide, 72 h) | Colony growth of Rh30 cells on soft agar, single agent ([2]; 10 μM, 72 h) | Growth of rhabdomyosarcoma cells, clonogenic assay, single agent [2] | A549 tumor weight at end of treatment, combination with carboplatin (A549 xenograft tumors) | A549 tumor weight at end of treatment, single agent (A549 xenograft tumors) | Growth of A549 xenograft tumors, combination with carboplatin (A549 xenograft tumors) | Growth of A549 xenograft tumors, single agent (A549 xenograft tumors) | Efficacy of compound alone relative to carboplatin, A549 tumors (A549 xenograft tumors) | A549 tumor growth at Day 43, 4 weeks from the end of treatment, combination with carboplatin (A549 xenograft tumors; compound 60 mg/kg 4 days/week + carboplatin 10 mg/kg 5 days/week for 15 days)
1 | < 5 | < 5 | Cc1ccccc1C(=O)N1CCc2cc(-c3nc(NC(=O)Cc4ccc5c(c4)OCO5)sc3C)ccc21 [compound 4] | potentiates the cytotoxicity of standard care chemotherapy drugs | significant growth inhibitory activity as single agent | suppress growth of rhabdomyosarcoma cells | significantly reduced tumor weight | significantly reduced tumor weight | tumor size and tumor weight was reduced; also recorded: sensitized A549 lung tumors to carboplatin therapy | tumor size and tumor weight was reduced; also recorded: shows anti-tumor activity as a single agent | comparable to carboplatin | –
2 | 5 to 25 | < 5 | O=C(Nc1ncc(Cc2ccc(C(F)(F)F)cc2)s1)c1ccc(-c2cccc([N+](=O)[O-])c2)o1 [Compound 1] | – | – | suppress growth of rhabdomyosarcoma cells | significantly reduced tumor weight | significantly reduced tumor weight | showed inhibition of A549 xenograft tumors; also recorded: sensitized A549 lung tumors to carboplatin therapy | showed inhibition of A549 xenograft tumors; also recorded: shows anti-tumor activity as a single agent | comparable to carboplatin | –
3 | < 5 | < 5 | CC1(C)CC2CC(C)(CN2S(=O)(=O)c2ccc(C(=O)Nc3ccc(Cl)c(S(=O)(=O)N4CCOCC4)c3)cc2)C1 (stereo not shown) [compound 3] | – | – | suppress growth of rhabdomyosarcoma cells | – | – | inhibited the growth; also recorded: sensitized A549 lung tumors to carboplatin therapy | inhibited the growth; also recorded: significantly attenuated tumor growth till 28 days | comparable to carboplatin | significant growth retardation as compared to group treated with single agent
